Data reported in ChEMBL document CHEMBL3817735 (J Med Chem, 2016).

Columns and labels:
Sialidase-3 = target: T1, Sialidase-3 (Homo sapiens, UniProt Q9UQ49); assay: Inhibition of human Neu3 expressed in HEK293T cells using GM3 as substrate incubated for 30 mins by HPLC analysis; format: cell-based, HEK-293T
T1 sequence (Q9UQ49 whole entry): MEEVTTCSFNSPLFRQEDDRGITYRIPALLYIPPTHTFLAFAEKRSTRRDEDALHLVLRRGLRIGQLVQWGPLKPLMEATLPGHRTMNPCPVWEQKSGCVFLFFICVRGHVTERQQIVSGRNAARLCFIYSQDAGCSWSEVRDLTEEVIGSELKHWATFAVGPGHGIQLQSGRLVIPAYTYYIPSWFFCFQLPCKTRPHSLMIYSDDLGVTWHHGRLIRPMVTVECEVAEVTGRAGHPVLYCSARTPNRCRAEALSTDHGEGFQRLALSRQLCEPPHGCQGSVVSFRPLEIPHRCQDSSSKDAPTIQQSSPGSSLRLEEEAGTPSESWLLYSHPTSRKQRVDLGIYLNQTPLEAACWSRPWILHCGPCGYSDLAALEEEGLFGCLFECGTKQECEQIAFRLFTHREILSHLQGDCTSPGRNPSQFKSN

Sialidase-1 = Sialidase-1 (Homo sapiens, UniProt Q99519); assay: Inhibition of human Neu1 expressed in HEK293T cells using 4MU-Neu5Ac as substrate incubated for 30 mins by HPLC analysis; format: cell-based, HEK-293T
Sialidase-4 [1] = target: T2, Sialidase-4 (Homo sapiens, UniProt Q8WWR8); assay: Inhibition of human Neu4 expressed in HEK293T cells using 4MU-Neu5Ac as substrate incubated for 30 mins by HPLC analysis; format: cell-based, HEK-293T
T2 sequence (Q8WWR8 whole entry): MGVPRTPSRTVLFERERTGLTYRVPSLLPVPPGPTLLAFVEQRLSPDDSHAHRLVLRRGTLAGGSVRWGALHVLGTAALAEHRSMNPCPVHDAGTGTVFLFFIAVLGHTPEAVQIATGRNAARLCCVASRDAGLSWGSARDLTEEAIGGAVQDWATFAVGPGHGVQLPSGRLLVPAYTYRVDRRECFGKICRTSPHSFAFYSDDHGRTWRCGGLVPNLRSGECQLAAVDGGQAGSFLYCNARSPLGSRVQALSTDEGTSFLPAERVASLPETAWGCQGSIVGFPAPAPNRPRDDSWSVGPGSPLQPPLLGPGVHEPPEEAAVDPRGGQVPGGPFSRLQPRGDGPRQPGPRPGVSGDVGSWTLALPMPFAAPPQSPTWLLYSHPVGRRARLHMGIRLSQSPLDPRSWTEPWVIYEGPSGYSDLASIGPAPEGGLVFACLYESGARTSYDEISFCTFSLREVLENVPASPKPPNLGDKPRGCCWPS

Sialidase-4 [2] = target: T2, Sialidase-4; assay: Inhibition of human Neu4 expressed in HEK293T cells using GM3 as substrate incubated for 30 mins by HPLC analysis; format: cell-based, HEK-293T
Influenza A virus [3] = assay: Antiviral activity against Influenza A virus (A/duck/Tsukuba/67/2005(H1N1)) infected in MDCK cells preincubated for 1 hr followed by infection measured after 19 to 20 hrs by galactosidase-based fluorescence assay and peroxidase-based chromogenic assay; format: functional, organism-based
Influenza A virus [4] = assay: Antiviral activity against Influenza A virus (A/mallard/Hokkaido/24/2009(H5N1)) infected in MDCK cells preincubated for 1 hr followed by infection measured after 19 to 20 hrs by galactosidase-based fluorescence assay and peroxidase-based chromogenic assay; format: functional, organism-based
Influenza A virus [5] = assay: Antiviral activity against Influenza A virus (A/duck/Tsukuba/28/2005(H6N2)) infected in MDCK cells preincubated for 1 hr followed by infection measured after 19 to 20 hrs by galactosidase-based fluorescence assay and peroxidase-based chromogenic assay; format: functional, organism-based
Influenza A virus [6] = assay: Antiviral activity against Influenza A virus (A/duck/Tsukuba/394/2005(H5N3)) infected in MDCK cells preincubated for 1 hr followed by infection measured after 19 to 20 hrs by galactosidase-based fluorescence assay and peroxidase-based chromogenic assay; format: functional, organism-based
Influenza A virus [7] = assay: Antiviral activity against Influenza A virus (A/duck/Tsukuba/20/2007(H8N4)) infected in MDCK cells preincubated for 1 hr followed by infection measured after 19 to 20 hrs by galactosidase-based fluorescence assay and peroxidase-based chromogenic assay; format: functional, organism-based
Influenza A virus [8] = assay: Antiviral activity against Influenza A virus A/duck/Chiba/13/06(H12N5) infected in MDCK cells preincubated for 1 hr followed by infection measured after 19 to 20 hrs by galactosidase-based fluorescence assay and peroxidase-based chromogenic assay; format: functional, organism-based
Influenza A virus [9] = assay: Antiviral activity against Influenza A virus (A/duck/Shiga/8/2004(H4N6)) infected in MDCK cells preincubated for 1 hr followed by infection measured after 19 to 20 hrs by galactosidase-based fluorescence assay and peroxidase-based chromogenic assay; format: functional, organism-based
Influenza A virus [10] = assay: Antiviral activity against Influenza A virus (A/duck/Tsukuba/700/2007(H7N7)) infected in MDCK cells preincubated for 1 hr followed by infection measured after 19 to 20 hrs by galactosidase-based fluorescence assay and peroxidase-based chromogenic assay; format: functional, organism-based
Influenza A virus [11] = assay: Antiviral activity against Influenza A virus (A/duck/Tsukuba/28/2006(H3N8)) infected in MDCK cells preincubated for 1 hr followed by infection measured after 19 to 20 hrs by galactosidase-based fluorescence assay and peroxidase-based chromogenic assay; format: functional, organism-based
Influenza A virus [12] = assay: Antiviral activity against Influenza A virus A/duck/Tsukuba/441/05(H11N9) infected in MDCK cells preincubated for 1 hr followed by infection measured after 19 to 20 hrs by galactosidase-based fluorescence assay and peroxidase-based chromogenic assay; format: functional, organism-based
Influenza A virus [13] = assay: Antiviral activity against Influenza A virus (A/California/04/2009(H1N1)) infected in dog AX4 cells preincubated for 1 hr followed by infection measured after 19 to 20 hrs by galactosidase-based fluorescence assay and peroxidase-based chromogenic assay; format: functional, organism-based
Influenza A virus [14] = assay: Antiviral activity against Influenza A virus (A/Narita/1/2009(H1N1)) infected in dog AX4 cells preincubated for 1 hr followed by infection measured after 19 to 20 hrs by galactosidase-based fluorescence assay and peroxidase-based chromogenic assay; format: functional, organism-based
Influenza A virus [15] = assay: Antiviral activity against Influenza A virus A/Yamaguchi/20/06(H1N1) infected in dog AX4 cells preincubated for 1 hr followed by infection measured after 19 to 20 hrs by galactosidase-based fluorescence assay and peroxidase-based chromogenic assay; format: functional, organism-based
Influenza A virus [16] = assay: Antiviral activity against Influenza A virus A/Kitakyushu/10/06(H1N1) infected in dog AX4 cells preincubated for 1 hr followed by infection measured after 19 to 20 hrs by galactosidase-based fluorescence assay and peroxidase-based chromogenic assay; format: functional, organism-based
Influenza A virus [17] = assay: Antiviral activity against Influenza A virus (A/Aichi/75/2008(H3N2)) infected in dog AX4 cells preincubated for 1 hr followed by infection measured after 19 to 20 hrs by galactosidase-based fluorescence assay and peroxidase-based chromogenic assay; format: functional, organism-based
Influenza A virus [18] = assay: Antiviral activity against Influenza A virus (A/Aichi/102/2008(H3N2)) infected in dog AX4 cells preincubated for 1 hr followed by infection measured after 19 to 20 hrs by galactosidase-based fluorescence assay and peroxidase-based chromogenic assay; format: functional, organism-based
MDCK = assay: Cytotoxicity against MDCK cells at 0.064 to 1000 uM incubated for 24 hrs by cell counting analysis; format: cell-based, Canis lupus familiaris; details: dog
[19] = Cytotoxicity against dog AX4 cells at 0.064 to 1000 uM incubated for 24 hrs by cell counting analysis; format: cell-based, Canis lupus familiaris; details: ax4, 24 h
Neuraminidase [20] = target: T3, Neuraminidase (Influenza A virus, UniProt B4URF0); assay: Inhibition of Influenza A virus (A/duck/Tsukuba/67/2005(H1N1)) neuraminidase N1 activity using 4MU-Neu5Ac as substrate preincubated for 15 mins followed by substrate addition measured after 15 mins by fluorescence analysis
T3 sequence (B4URF0 whole entry): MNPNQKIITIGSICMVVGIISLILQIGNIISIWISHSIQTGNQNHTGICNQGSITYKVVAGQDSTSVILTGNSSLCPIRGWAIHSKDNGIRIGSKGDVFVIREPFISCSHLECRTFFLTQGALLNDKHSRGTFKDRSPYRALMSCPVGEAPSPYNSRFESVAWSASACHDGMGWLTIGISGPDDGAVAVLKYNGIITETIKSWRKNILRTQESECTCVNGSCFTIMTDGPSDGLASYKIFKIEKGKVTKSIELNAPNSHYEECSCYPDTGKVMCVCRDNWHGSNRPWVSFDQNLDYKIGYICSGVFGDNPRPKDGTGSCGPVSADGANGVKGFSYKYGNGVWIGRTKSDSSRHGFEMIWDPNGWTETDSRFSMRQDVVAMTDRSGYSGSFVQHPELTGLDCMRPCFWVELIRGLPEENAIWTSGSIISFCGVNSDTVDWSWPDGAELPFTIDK

Neuraminidase [21] = target: T3, Neuraminidase; assay: Inhibition of Influenza A virus (A/duck/Tsukuba/28/2005(H6N2)) neuraminidase N2 activity using 4MU-Neu5Ac as substrate preincubated for 15 mins followed by substrate addition measured after 15 mins by fluorescence analysis
Neuraminidase [22] = target: T3, Neuraminidase; assay: Inhibition of Influenza A virus (A/duck/Tsukuba/394/2005(H5N3)) neuraminidase N3 activity using 4MU-Neu5Ac as substrate preincubated for 15 mins followed by substrate addition measured after 15 mins by fluorescence analysis

SMILES	IC50 (Sialidase-3)	IC50 (Sialidase-1)	IC50 (Sialidase-4 [1])	IC50 (Sialidase-4 [2])	IC50 (Influenza A virus [3])	IC50 (Influenza A virus [4])	IC50 (Influenza A virus [5])	IC50 (Influenza A virus [6])	IC50 (Influenza A virus [7])	IC50 (Influenza A virus [8])	IC50 (Influenza A virus [9])	IC50 (Influenza A virus [10])	IC50 (Influenza A virus [11]; Influenza A virus, MDCK)	IC50 (Influenza A virus [12])	IC50 (Influenza A virus [13])	IC50 (Influenza A virus [14])	IC50 (Influenza A virus [15])	IC50 (Influenza A virus [16])	IC50 (Influenza A virus [17])	IC50 (Influenza A virus [18])	also measured
CC(=O)N[C@H]1[C@H]([C@H](O)[C@H](O)CNC(=O)C2CC2)OC(C(=O)O)=C[C@@H]1NC(=N)N.O=C(O)C(F)(F)F	> 1000 µM	> 1000 µM	> 1000 µM	> 1000 µM	0.049 µM	0.396 µM	0.0118 µM	0.0382 µM	0.197 µM	0.0293 µM	0.0248 µM	0.276 µM	0.163 µM	0.3 µM	0.00604 µM	0.00486 µM	0.0276 µM	0.106 µM	1.34 nM	1.27 nM	Activity (MDCK): Non-toxic; Activity [19]: Non-toxic
CC(=O)N[C@H]1[C@H]([C@H](O)[C@H](O)CO)OC(C(=O)O)=C[C@@H]1O [NEU5AC2EN]	50 µM	–	–	–	–	–	–	–	–	–	–	–	–	–	–	–	–	–	–	–	IC50 (Neuraminidase [20]): 1 µM; IC50 (Neuraminidase [21]): 1 µM; IC50 (Neuraminidase [22]): 1 µM
CCC(CC)OC[C@@H]1CC(C(=O)O)=C[C@H](N)[C@H]1NC(C)=O	–	–	–	–	0.00758 µM	0.0282 µM	0.00085 µM	0.00228 µM	0.005 µM	0.00364 µM	0.00087 µM	0.00474 µM	0.00551 µM	0.0129 µM	0.0003 µM	0.00028 µM	0.00171 µM	3.91 µM	0.07 nM	0.04 nM	–
CC(=O)N[C@H]1[C@H]([C@H](O)[C@H](O)CO)OC(C(=O)O)=C[C@@H]1NC(=N)N [ZANAMIVIR]	–	> 1000 µM	–	–	0.00273 µM	0.0156 µM	0.0065 µM	0.0119 µM	0.00933 µM	0.0288 µM	0.0109 µM	0.0584 µM	–	0.065 µM	–	–	–	–	–	–	IC50 (Influenza A virus [11]; mdck): 0.0167 µM
CCCCC(=O)NC[C@@H](O)[C@@H](O)[C@@H]1OC(C(=O)O)=C[C@H](NC(=N)N)[C@H]1NC(C)=O.O=C(O)C(F)(F)F	> 1000 µM	> 700 µM	> 700 µM	> 700 µM	2.25 µM	8.3 µM	0.448 µM	5.87 µM	5.67 µM	25.6 µM	1.1 µM	5.02 µM	47.7 µM	5.5 µM	0.136 µM	0.127 µM	0.39 µM	0.337 µM	24.7 nM	40.2 nM	Activity (MDCK): Non-toxic; Activity [19]: Non-toxic
